Test results reported in ChEMBL document CHEMBL1154761 (J Med Chem, 2010).
Each block holds one compound with its values, some of them ahead of it.

Experiments:
Beta-secretase 1 [1] = target: T1, Beta-secretase 1 (Homo sapiens, UniProt P56817)
Description: Inhibition of BACE1 mediated human Swedish amyloid precursor protein peptide hydrolysis by HTRF assay

Beta-secretase 1 [2] = target: T1, Beta-secretase 1; test: Inhibition of BACE1 by fragment-based NMR screening method
[3] = Dissociation constant, pKa of the compound; format: physicochemical
Beta-secretase 1 [4] = target: T1, Beta-secretase 1; test: Inhibition of BACE1 mediated human Swedish amyloid precursor protein peptide hydrolysis at 500 uM by HTRF assay
Cathepsin D [5] = target: T2, Cathepsin D (Homo sapiens, UniProt P07339); test: Inhibition of human cathepsin D at 50 uM preincubated for 30 mins
T2 sequence (P07339 65-162 limits assumed): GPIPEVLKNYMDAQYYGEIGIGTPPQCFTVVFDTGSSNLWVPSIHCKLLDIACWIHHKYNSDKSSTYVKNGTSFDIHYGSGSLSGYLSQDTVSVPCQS
T2 sequence (P07339 169-412 limits assumed): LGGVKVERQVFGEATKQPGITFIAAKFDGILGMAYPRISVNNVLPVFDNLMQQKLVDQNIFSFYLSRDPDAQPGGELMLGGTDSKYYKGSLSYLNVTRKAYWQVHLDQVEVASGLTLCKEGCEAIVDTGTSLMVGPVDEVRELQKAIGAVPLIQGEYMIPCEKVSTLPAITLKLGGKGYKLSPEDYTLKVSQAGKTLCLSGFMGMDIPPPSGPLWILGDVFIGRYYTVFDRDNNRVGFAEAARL

[6] = Ratio of drug level in brain to plasma of rat at 10 mg/kg, po; format: ADME, organism-based; parameters: dose 10 mg/kg, route oral
in vivo = conditions: rat, plasma, po, 10 mg/kg
Beta-secretase 1 [7] = target: T1, Beta-secretase 1; test: Inhibition of BACE1 mediated hydrolysis of human amyloid precursor protein with Swedish and London mutation in HEK293 cells by ELISA; format: cell-based
Cathepsin D [8] = target: T2, Cathepsin D; test: Inhibition of human cathepsin D preincubated for 30 mins

T1 sequence (P56817 whole entry, the tested form may be a part): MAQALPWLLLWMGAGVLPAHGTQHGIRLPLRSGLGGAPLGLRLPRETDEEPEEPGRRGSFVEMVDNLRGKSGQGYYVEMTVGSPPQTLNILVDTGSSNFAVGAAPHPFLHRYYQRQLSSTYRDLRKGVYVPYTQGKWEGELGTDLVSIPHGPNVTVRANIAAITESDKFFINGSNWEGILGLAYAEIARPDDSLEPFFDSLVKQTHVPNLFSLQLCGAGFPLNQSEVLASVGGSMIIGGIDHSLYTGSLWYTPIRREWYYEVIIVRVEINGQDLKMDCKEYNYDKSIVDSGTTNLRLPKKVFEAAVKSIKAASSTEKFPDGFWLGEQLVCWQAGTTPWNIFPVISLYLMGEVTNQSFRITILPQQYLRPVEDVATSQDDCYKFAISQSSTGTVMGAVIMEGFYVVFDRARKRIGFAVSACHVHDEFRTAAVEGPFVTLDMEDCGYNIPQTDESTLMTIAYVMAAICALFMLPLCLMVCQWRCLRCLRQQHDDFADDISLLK

SMILES: CCCCNC(=O)NCc1ccc(CN2C(=N)NC(C)(CC(C)C)C2=O)cc1 (stereo not drawn)
IC50 (Beta-secretase 1 [1]): 78 µM

IC50 (Beta-secretase 1 [1]): 2.1 µM
SMILES: CCCCNC(=O)NCc1ccc(CN2C(=N)NC(CC3CCCCC3)(CC3CCCCC3)C2=O)cc1

SMILES: CC(C)CC1(C)NC(=N)N(Cc2cccc(Cl)c2)C1=O (stereo not drawn)
Kd (Beta-secretase 1 [2]): 123 µM
pKa [3]: 7.2
inhibition (Beta-secretase 1 [4]): 55%

IC50 (Beta-secretase 1 [1]): 50 µM
SMILES: CCCCNC(=O)NCc1ccc(CN2C(=N)NC(CCc3ccccc3)(CC(C)C)C2=O)cc1 (racemic)

SMILES: CC(C)CC1(C)C(=O)NC(=N)N1Cc1cccc(Cl)c1 (stereo not drawn)
inhibition (Beta-secretase 1 [4]): 6%

SMILES: CCCCNC(=O)NCc1ccc(CN2C(=N)NC(CCC3CCCCC3)(CC3CCCCC3)C2=O)cc1 (stereo not drawn)
IC50 (Beta-secretase 1 [1]): 0.35 µM

SMILES: CN1C(=O)C(c2ccccc2)(c2ccccc2)N=C1N
inhibition (Cathepsin D [5]): 38%
Kp [6]: 1.8
AUC (in vivo): 5 µM·h

IC50 (Beta-secretase 1 [1]): 7 µM
SMILES: CC(C)CC1(C)NC(=N)N(Cc2ccc(CNC(=O)Nc3ccc(C#N)cc3)cc2)C1=O (racemic)

pKa [3]: 4.4
SMILES: CC1(C)C(=O)NC(=N)N1CCc1cccc(Cl)c1

inhibition (Beta-secretase 1 [4]): 64%
SMILES: CCCCNC(=O)NCc1ccc(CN2C(=N)NC(C)(Cc3ccccc3)C2=O)cc1 (racemic)

IC50 (Beta-secretase 1 [1]): 0.605 µM
IC50 (Beta-secretase 1 [7]): 2.6 µM
Kp [6]: 0.9
AUC (in vivo): 1 µM·h
Ki (Cathepsin D [8]): 0.74 µM
SMILES: CN1C(=N)N[C@](CCC2CCCCC2)(CC2CCCCC2)C1=O

IC50 (Beta-secretase 1 [1]): 5 µM
SMILES: CCCCNC(=O)NCc1ccc(CN2C(=N)NC(C)(CC3CCCCC3)C2=O)cc1 (racemic)

IC50 (Beta-secretase 1 [1]): 3 µM
SMILES: CCCCNC(=O)NCc1ccc(CN2C(=N)NC(CCC3CCCCC3)(CC(C)C)C2=O)cc1 (racemic)

SMILES: CC1(C)NC(=N)N(Cc2cccc(Cl)c2)C1=O
Kd (Beta-secretase 1 [2]): 200 µM
inhibition (Beta-secretase 1 [4]): 19%
